From US7981903B2, “2-[2-{phenylamino}-1H-pyrrolo[2,3-D]pyrimidin-4-yl)amino] benzamide derivatives as IGF-1R inhibitors for the treatment of cancer” (GlaxoSmithKline LLC, priority 2007, dated 2011)

Key:
human IGF1R (hIGF1R) = biological target: T1, human IGF1R (hIGF1R) (Homo sapiens, UniProt P08069); assay: TR-FRET kinase assay of purified hIGF1R; type: biochemical; details: activated hIGF1R 0.5 nM, 10 μM ATP, values given as pIC50 category, read-out: IGF-1R pIC50 (converted)
T1 construct: containing amino acid residues 957-1367 of human IGF1R; made in house; host or cells: Sf9 cells (baculovirus)
T1 sequence (P08069 957-1367): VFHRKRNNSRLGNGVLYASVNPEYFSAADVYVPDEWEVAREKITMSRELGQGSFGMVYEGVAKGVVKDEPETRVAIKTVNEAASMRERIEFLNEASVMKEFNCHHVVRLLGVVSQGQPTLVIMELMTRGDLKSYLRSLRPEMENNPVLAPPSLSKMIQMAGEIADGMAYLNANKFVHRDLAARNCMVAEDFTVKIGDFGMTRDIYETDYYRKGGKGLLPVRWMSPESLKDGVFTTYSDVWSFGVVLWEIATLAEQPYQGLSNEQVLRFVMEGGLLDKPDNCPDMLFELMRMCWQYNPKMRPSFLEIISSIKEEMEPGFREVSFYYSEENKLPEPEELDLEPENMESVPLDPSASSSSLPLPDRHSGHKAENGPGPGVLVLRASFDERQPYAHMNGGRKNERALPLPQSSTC
Method: (§1) Time Resolved Fluorescence Resonance Energy Transfer (TR-FRET) assays were carried out on the exemplified compounds as follows:
(§2) Purity is determined by HPLC. The calculated molecular mass of the peptide is 2216 dalton. Tyrosine phosphorylation by human IGF1R (hIGF1R) or human IR (hIR) occurs as indicated (Y*) in the peptide sequence described. Solid peptide sample is dissolved to approximately 1 mM in DMSO, aliquoted, and stored at −20° C. until use. True peptide concentration is determined by amino acid analysis.
hIGF1R: GST-rTEV-IGF-1R(957-1367) containing amino acid residues 957-1367 of human IGF1R (as annotated by National Center for Biotechnology Information (NCBI) accession number NP_000866) is purified from a baculovirus expression system in Sf9 cells using Glutathione Sepharose 4FF column chromatography followed by Sephadex-200 size exclusion column chromatography. […] Samples, in 25 mM Tris-HCl, 250 mM NaCl, 5% glycerol, 1 mM DTT, pH 7.5, are stored at −80° C. until use.
(§3) hIGF1R: Activation of GST-rTEV-IGF-1R(957-1367) is achieved by a 4 minute incubation of hIGF1R (2.7 μM final) with 2 mM ATP in 50 mM HEPES, 20 mM MgCL2, 0.1 mg/ml BSA, at room temperature. Autophosphorylation is stopped by addition of EDTA (to 100 mM final). Aliquoted samples are flash frozen in liquid nitrogen and stored at −80° C. until use.
(§4) Assays are performed in 384-well (Greiner, Catalog No. 784076) microtiter plates. Reaction buffer (50 mM HEPES buffer, pH 7.5; 10 mM MgCL2; 3 mM DTT; 1 mM CHAPS; 0.1 mg/ml BSA) for peptide phosphorylation (10 μl volume) contained, in final concentrations, 500 nM biotinylated peptide substrate; 10 μM ATP; and purified, activated hIGF1R or hIR (0.5 nM). Compounds, titrated in DMSO, are evaluated at eleven concentrations ranging from 50 μM to 0.2 nM. […] Reactions are incubated for 1 hour at room temperature and are stopped by a 5 μl addition of EDTA (to 33 mM). A further addition of 5 μl detection reagents (for final 7 nM Streptavidin-APC (Perkin Elmer #CR^130-150), 1 nM Europium-labeled anti-phosphotyrosine monoclonal antibody (PerkinElmer #AD0067), added in reaction buffer (without DTT), is required for signal generation. After 30 minutes, signal is read on PerkinElmer Viewlux microplate imager or Wallac Victor fluorometer.
(§5) The data for compound concentration responses were plotted as % Inhibition, calculated with the data reduction formula 100*(1-[(U1-C2)/(C1-C2)]), versus concentration of compound, where • U is the unknown value, • C1 is the average control value obtained for DMSO only, and • C2 is the average control value obtained for reactions stopped with EDTA at • t=0.
(§6) Data were fitted to the curve described by: y=((Vmax*x)/(K+x)) where • Vmax is the upper asymptote and • K is the IC50.

human IR (hIR) = biological target: T2, human IR (hIR) (Homo sapiens, UniProt P06213); assay: TR-FRET kinase assay of purified hIR; type: biochemical; details: activated hIR 0.5 nM, 10 μM ATP, values given as pIC50 category
T2 construct: containing amino acid residues 979-1382 of human IR; made in house; host or cells: Sf9 cells (baculovirus), same process as hIGF1R
T2 sequence (P06213 979-1382): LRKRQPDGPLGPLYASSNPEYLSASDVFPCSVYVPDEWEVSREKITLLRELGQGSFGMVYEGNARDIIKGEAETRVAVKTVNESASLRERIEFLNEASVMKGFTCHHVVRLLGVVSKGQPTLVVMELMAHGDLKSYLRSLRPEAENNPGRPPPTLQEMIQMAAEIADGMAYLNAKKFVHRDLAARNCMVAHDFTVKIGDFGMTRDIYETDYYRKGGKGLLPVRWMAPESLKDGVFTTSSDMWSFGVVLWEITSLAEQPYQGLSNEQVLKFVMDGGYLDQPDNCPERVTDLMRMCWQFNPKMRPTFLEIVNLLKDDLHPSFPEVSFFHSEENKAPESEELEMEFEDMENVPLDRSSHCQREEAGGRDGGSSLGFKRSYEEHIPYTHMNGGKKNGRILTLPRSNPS
Method: as §1, §2
hIR: GST-rTEV-IR(979-1382) containing amino acid residues 979-1382 of human IR (as annotated by NCBI accession number NP_000199) is expressed and purified by the same process as hIGF1R. […] Samples, in 25 mM Tris-HCl, 250 mM NaCl, 5% glycerol, 1 mM DTT, pH 7.5, are stored at −80° C. until use.
as §3, with “hIR:” for “hIGF1R:”, “5” for “4”, “hIR” for “hIGF1R”, “100” for “50”, “10” for “20”
as §4, §5, §6

ALK = ALK (Homo sapiens, UniProt Q9UM73); assay: ALK enzyme assay (HTRF); type: biochemical; details: 0.25 nM ALK, 15.0 μM ATP, values given as pIC50 category
ALK, sequence (Q9UM73 19-1620): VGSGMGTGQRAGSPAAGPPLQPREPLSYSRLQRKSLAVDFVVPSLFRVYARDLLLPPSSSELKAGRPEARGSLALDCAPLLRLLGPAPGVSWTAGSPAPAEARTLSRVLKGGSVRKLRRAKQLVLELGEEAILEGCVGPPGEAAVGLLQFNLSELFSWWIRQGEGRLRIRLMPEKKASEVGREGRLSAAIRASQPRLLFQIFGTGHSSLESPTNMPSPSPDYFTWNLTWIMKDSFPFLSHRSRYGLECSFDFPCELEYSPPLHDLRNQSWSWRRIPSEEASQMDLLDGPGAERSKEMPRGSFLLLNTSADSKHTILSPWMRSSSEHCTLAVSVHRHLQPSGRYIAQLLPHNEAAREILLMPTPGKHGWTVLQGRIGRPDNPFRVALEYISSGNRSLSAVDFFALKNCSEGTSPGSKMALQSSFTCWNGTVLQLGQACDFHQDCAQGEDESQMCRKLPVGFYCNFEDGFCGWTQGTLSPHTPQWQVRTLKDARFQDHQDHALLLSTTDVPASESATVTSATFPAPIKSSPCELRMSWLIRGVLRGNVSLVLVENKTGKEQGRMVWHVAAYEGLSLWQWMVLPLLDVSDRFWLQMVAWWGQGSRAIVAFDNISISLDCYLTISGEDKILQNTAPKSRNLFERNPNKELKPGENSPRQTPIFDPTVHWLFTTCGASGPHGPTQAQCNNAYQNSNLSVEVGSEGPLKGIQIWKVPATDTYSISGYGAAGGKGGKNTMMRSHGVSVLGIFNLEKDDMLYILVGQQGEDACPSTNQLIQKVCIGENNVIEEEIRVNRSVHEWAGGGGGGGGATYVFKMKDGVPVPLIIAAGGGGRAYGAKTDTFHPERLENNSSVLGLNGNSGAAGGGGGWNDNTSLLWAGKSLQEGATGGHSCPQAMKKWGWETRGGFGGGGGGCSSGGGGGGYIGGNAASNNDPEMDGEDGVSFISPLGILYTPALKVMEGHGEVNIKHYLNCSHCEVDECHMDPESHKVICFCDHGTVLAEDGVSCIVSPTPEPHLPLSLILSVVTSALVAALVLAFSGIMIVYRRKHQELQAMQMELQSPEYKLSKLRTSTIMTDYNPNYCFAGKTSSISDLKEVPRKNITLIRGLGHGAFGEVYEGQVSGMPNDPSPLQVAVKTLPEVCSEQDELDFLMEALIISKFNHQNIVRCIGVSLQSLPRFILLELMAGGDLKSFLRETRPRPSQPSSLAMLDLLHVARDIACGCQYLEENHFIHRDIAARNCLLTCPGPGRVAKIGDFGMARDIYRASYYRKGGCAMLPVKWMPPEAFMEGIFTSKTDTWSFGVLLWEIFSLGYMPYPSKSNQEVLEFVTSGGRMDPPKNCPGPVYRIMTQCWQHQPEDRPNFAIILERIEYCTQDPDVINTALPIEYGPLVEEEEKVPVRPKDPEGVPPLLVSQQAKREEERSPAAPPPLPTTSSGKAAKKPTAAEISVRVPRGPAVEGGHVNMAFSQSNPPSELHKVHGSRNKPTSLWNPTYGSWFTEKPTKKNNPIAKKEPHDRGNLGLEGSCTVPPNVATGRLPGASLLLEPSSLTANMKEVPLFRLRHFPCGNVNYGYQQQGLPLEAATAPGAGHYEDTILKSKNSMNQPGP
Method: The method measures the ability of the isolated enzyme to catalyse the transfer of the gamma-phosphate from ATP onto the tyrosine residue of a biotinylated synthetic peptide. The extent of tyrosine phosphorylation was measured using an anti-phosphotyrosine antibody, and quantified by homogenous time-resolved fluorescence (HTRF) assay purchased from CisBio (62TK0PEJ).
Reactions were performed in black 384-well polystyrene low volume plates in a final volume of 5 μl.
The reactions were then started by adding the substrate mix. The reactions were allowed to proceed for 120 minutes at 20° C. The reactions were then terminated by the addition of 5 μl HTRF detection mix to each well. The final concentrations of the detection reagents were: 50 mM HEPES (pH7.0); 0.1% BSA; 0.8 M KF; 20 mM EDTA; 1 mM CHAPS; TK-antibody Europium Cryptate; and 41 nM streptavidin-XL665. Assay plates were left unsealed, stacked and incubated at 20° for 60 minutes. Quantification of activity was achieved by counting in an Envision Counter (PerkinElmer).
Compounds under analysis were dissolved in Me2SO to 1.0 mM and serially diluted 1 to 3 with Me2SO through twelve dilutions. 0.05 μl of each concentration was transferred to the corresponding well of an assay plate. This creates a final compound concentration range from 0.00017 to 10 μM.
The data for dose responses were plotted as % Inhibition calculated with the data reduction formula 100*(1-(U1-C2)/(C1-C2)) versus concentration of compound where U is the unknown value, C1 is the average control value obtained for 1% DMSO, and C2 is the average control value obtained for 0.1 M EDTA. Data were fitted with a curve described by:
[formula] where A is the minimum y, B is the maximum y concentration [M], D is the slope factor, and x is the log10 of the compound.

[1] = biological target: T3, NIH-3T3 cells overexpressing human IGF-1R (Homo sapiens, UniProt P08069); assay: IGF-1R cellular autophosphorylation (DELFIA); type: cell-based
T3 construct: expressed in transfected cells; host or cells: NIH-3T3 (mouse fibroblasts)
T3 sequence (P08069 31-1367): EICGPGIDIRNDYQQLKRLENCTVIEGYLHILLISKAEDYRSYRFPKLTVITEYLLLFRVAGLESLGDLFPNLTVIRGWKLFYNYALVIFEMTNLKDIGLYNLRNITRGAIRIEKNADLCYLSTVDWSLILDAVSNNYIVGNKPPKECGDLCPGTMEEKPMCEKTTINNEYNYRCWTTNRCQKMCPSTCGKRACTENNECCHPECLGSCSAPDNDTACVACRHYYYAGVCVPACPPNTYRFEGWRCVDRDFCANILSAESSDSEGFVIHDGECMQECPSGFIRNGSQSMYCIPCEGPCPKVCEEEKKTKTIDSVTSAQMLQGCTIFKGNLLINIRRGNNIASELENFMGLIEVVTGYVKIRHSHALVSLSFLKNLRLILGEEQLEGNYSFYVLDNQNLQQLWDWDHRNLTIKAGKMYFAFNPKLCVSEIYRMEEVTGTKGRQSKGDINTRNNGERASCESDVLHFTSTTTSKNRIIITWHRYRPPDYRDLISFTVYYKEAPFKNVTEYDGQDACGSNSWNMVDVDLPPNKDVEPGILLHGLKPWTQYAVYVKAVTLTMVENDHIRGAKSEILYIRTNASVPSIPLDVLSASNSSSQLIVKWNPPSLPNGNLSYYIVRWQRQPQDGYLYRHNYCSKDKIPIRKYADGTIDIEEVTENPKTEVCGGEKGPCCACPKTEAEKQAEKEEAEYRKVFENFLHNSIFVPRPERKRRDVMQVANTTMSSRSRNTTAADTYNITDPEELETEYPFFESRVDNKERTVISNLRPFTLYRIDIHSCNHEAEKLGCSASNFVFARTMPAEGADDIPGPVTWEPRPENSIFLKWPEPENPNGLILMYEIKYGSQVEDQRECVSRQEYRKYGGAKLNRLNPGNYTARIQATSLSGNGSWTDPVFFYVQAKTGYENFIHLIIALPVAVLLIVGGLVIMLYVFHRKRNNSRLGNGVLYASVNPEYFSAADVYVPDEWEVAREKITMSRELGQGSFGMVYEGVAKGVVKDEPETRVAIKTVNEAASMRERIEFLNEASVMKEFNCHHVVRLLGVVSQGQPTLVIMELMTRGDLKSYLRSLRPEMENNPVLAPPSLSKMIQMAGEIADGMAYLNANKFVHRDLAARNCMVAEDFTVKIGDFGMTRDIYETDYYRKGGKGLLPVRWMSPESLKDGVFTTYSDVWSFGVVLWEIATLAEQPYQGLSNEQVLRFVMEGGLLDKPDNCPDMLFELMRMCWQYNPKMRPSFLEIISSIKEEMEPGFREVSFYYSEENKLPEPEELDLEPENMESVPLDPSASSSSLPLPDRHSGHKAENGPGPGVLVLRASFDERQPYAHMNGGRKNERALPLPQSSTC
Method: NIH-3T3 cells overexpressing human IGF-1R or IR were plated in 96-well plates (10,000 cells/well) in culture media containing 10% fetal bovine serum and incubated at 37° C. in a 5% CO2 incubator. Twenty four hours post-plating, cells were treated with different concentrations of test compounds ranging from 30 uM to 1.5 nM. Two hours after compound addition, cells were stimulated with either human IGF-1 (30 ng/ml) or insulin (3 ug/ml) for 15 minutes. Cell lysates are analyzed for phosphorylated receptors using dissociation enhanced lanthanide fluor-immuno assay (DELFIA) with anti-IGF-1R (MAB391, R&D Systems, Minneapolis, Minn.) or anti-IRβ (sc-711, Santa Cruz Biotechnology, Santa Cruz, Calif.) capture antibody and europium-labeled anti-pTyr antibody (Eu-N1 PT66, Perkin Elmer, Waltham, Mass.) for detection. The fluorescence signal for cells treated with compounds was expressed as percent relative to 100% stimulation (IGF-1 or insulin stimulated signal).

In the case of `COc1cc(C2=CCCN(C(C)C)C2)ccc1Nc1nc(Nc2cc(F)c(F)cc2C(N)=O)c2cc[nH]c2n1` [Example 96, 4,5-difluoro-2-[(2-{[4-[1-(1-methylethyl)-1,2,5,6-tetrahydro-3-pyridinyl]-2-(methyloxy)phenyl]amino}-1H-pyrrolo[2,3-d]pyrimidin-4-yl)amino]benzamide], the IC50 (human IGF1R (hIGF1R)) is reported as 0.251 to 1 nM, the IC50 (human IR (hIR)) is reported as 0.251 to 1 nM and the IC50 (ALK) is reported as 0.251 to 1 nM. The IC50 [1] was under 100 nM.

With `CCCN1CCC=C(c2ccc(Nc3nc(Nc4cc(F)c(F)cc4C(N)=O)c4cc[nH]c4n3)c(OC)c2)C1` [Example 95, 4,5-difluoro-2-[(2-{[2-(methyloxy)-4-(1-propyl-1,2,5,6-tetrahydro-3-pyridinyl)phenyl]amino}-1H-pyrrolo[2,3-d]pyrimidin-4-yl)amino]benzamide] the IC50 (human IGF1R (hIGF1R)) was 0.251 to 1 nM, the IC50 (human IR (hIR)) was 0.251 to 1 nM and the IC50 (ALK) was 0.251 to 1 nM. For the same molecule, the IC50 [1] was 100 to 500 nM.

Molecule `Cc1ccc(NC(=O)CN(C)C)cc1Nc1nc(Nc2cc(Cl)ccc2C(N)=O)c2cc[nH]c2n1` [Example 111] has an IC50 (human IGF1R (hIGF1R)) of 1.26 to 3.98 nM, an IC50 (human IR (hIR)) of 1.26 to 3.98 nM and an IC50 (ALK) of 5.01 to 200 nM. For the same molecule, the IC50 [1] was over 500 nM.

In the case of `CNC(=O)c1c(F)cccc1Nc1nc(Nc2cc3c(cc2OC)C[C@@H](C)N3C(=O)CN(C)C)nc2[nH]ccc12` [Example 250, 2-[(2-{[(2R)-1-(N,N-dimethylglycyl)-2-methyl-5-(methyloxy)-2,3-dihydro-1H-indol-6-yl]amino}-1H-pyrrolo[2,3-d]pyrimidin-4-yl)amino]-6-fluoro-N-methylbenzamide], the IC50 (human IGF1R (hIGF1R)) is reported as 5.01 to 200 nM, the IC50 (human IR (hIR)) is reported as 5.01 to 158 nM and the IC50 (ALK) is reported as 5.01 to 200 nM. For the same molecule, the IC50 [1] was over 500 nM.

With `CNC(=O)c1ccccc1Nc1nc(Nc2ccc(C3=CCCN(C)C3)cc2OC)nc2[nH]ccc12` [Example 21, N-methyl-2-[(2-{[2-(methyloxy)-4-(1-methyl-1,2,5,6-tetrahydro-3-pyridinyl)phenyl]amino}-1H-pyrrolo[2,3-d]pyrimidin-4-yl)amino]benzamide] the IC50 (human IGF1R (hIGF1R)) was 1.26 to 3.98 nM, the IC50 (human IR (hIR)) was 0.251 to 1 nM and the IC50 (ALK) was 0.251 to 1 nM. For the same molecule, the IC50 [1] was 100 to 500 nM.

`CNC(=O)c1ccccc1Nc1nc(Nc2ccc(C3CCCN(C)C3)cc2OC)nc2[nH]ccc12` (stereo not shown) [Example 22, N-methyl-2-[(2-{[2-(methyloxy)-4-(1-methyl-3-piperidinyl)phenyl]amino}-1H-pyrrolo[2,3-d]pyrimidin-4-yl)amino]benzamide] was tested, and the IC50 (human IGF1R (hIGF1R)) was 1.26 to 3.98 nM, the IC50 (human IR (hIR)) was 0.251 to 1 nM and the IC50 (ALK) was 0.251 to 1 nM. It also gave an IC50 [1] of 100 to 500 nM.

For `CCCN1CCC=C(c2ccc(Nc3nc(Nc4ccc(C)cc4C(N)=O)c4cc[nH]c4n3)c(OC)c2)C1` [Example 33, 5-methyl-2-[(2-{[2-(methyloxy)-4-(1-propyl-1,2,5,6-tetrahydro-3-pyridinyl)phenyl]amino}-1H-pyrrolo[2,3-d]pyrimidin-4-yl)amino]benzamide], the IC50 (human IGF1R (hIGF1R)) was 1.26 to 3.98 nM, the IC50 (human IR (hIR)) was 1.26 to 3.98 nM and the IC50 (ALK) was 0.251 to 1 nM. It also gave an IC50 [1] of over 500 nM.

`COc1cc(C2CCCN(C)C2)ccc1Nc1nc(Nc2ccccc2C(N)=O)c2cc[nH]c2n1` (stereo not shown) [Example 5, 2-[(2-{[2-(methyloxy)-4-(1-methyl-3-piperidinyl)phenyl]amino}-1H-pyrrolo[2,3-d]pyrimidin-4-yl)amino]benzamide] gave an IC50 (human IGF1R (hIGF1R)) of 0.251 to 1 nM, an IC50 (human IR (hIR)) of 0.251 to 1 nM and an IC50 (ALK) of 0.251 to 1 nM. The IC50 [1] was under 100 nM.

Work on `COc1cc(N2CCN(C(C)C)CC2)ccc1Nc1nc(Nc2cc(F)c(F)cc2C(N)=O)c2cc[nH]c2n1` [Example 102, 4,5-difluoro-2-[(2-{[4-[4-(1-methylethyl)-1-piperazinyl]-2-(methyloxy)phenyl]amino}-1H-pyrrolo[2,3-d]pyrimidin-4-yl)amino]benzamide] yielded an IC50 (human IGF1R (hIGF1R)) of 0.251 to 1 nM, an IC50 (human IR (hIR)) of 0.251 to 1 nM and an IC50 (ALK) of 0.251 to 1 nM. It also gave an IC50 [1] of under 100 nM.

In the case of `CCCN1CCC=C(c2ccc(Nc3nc(Nc4ccc(OC)cc4C(N)=O)c4cc[nH]c4n3)c(OC)c2)C1` [Example 38, 5-(methyloxy)-2-[(2-{[2-(methyloxy)-4-(1-propyl-1,2,5,6-tetrahydro-3-pyridinyl)phenyl]amino}-1H-pyrrolo[2,3-d]pyrimidin-4-yl)amino]benzamide], the IC50 (human IGF1R (hIGF1R)) is reported as 1.26 to 3.98 nM, the IC50 (human IR (hIR)) is reported as 1.26 to 3.98 nM and the IC50 (ALK) is reported as 0.251 to 1 nM. It also gave an IC50 [1] of 100 to 500 nM.
